Patent US20250228239A1, “MOLECULES HAVING PESTICIDAL UTILITY, AND INTERMEDIATES, COMPOSITIONS, AND PROCESSES, RELATED THERETO” (priority 2024, published 2025)
Like-named read-outs stand apart in the source and are kept apart here.

Legend:
Type in all cases: in vivo
[1] = tested on: Yellow Fever Mosquito (Aedes aegypti, AEDSAE)
Procedure, shortened: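 Larvae ~1 day old, in liver powder/water; compound from 4000 ppm DMSO stock diluted with water/acetone (90:10); 6 reps; lidded, RT, 3 d; mortality scored per well, rated.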

[2] = tested on: Cabbage Looper (Trichoplusia ni, TRIPNI); test: Bioassays on Cabbage Looper (CL), 128-well diet tray assay; settings: Trichoplusia ni, read-out: CL
Procedure, shortened: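 Percent mortality, averaged across eight replicate wells, after second-instar larvae (1–5 per well) fed for five to seven days on diet dosed at 50 μg/cm^2. Compound was applied in acetone-water 90:10 and dried; trays kept vented at 25° C under 14:10 photoperiod.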

[3] = tested on: Beet Armyworm (Spodoptera exigua, LAPHEG); test: Bioassays on Beet Armyworm (BAW), 128-well diet tray assay; settings: Spodoptera exigua, read-out: BAW
Procedure, shortened: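 Mortality of second-instar larvae (1–5/well) on artificial diet treated with 50 μg/cm^2 compound, read after 5–7 days at 25° C.; values are means of eight wells.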

[4] = Table ABC: Biological Results, species YFM
[5] = Table ABC: Biological Results, species CL
[6] = Table ABC: Biological Results, species BAW
[7] = Yellow Fever Mosquito, rating class

O=C1CC(C(=O)Nc2c(F)ccc(NC(=O)c3cc(NC(=O)[C@H]4[C@H](c5ccc(F)c(C(F)(F)F)c5)C4(Cl)Cl)ccc3Cl)c2F)C1 [F1303, 2-Chloro-5-((1R,3R)-2,2-dichloro-3-(4-fluoro-3-(trifluoromethyl)phenyl)cyclopropane-1-carboxamido)-N-(2,4-difluoro-3-(3-oxocyclobutane-1-carboxamido)phenyl)benzamide]
YFM [1, 4]: A (80–100) | pest or weed control at 50 µg/cm2 [2, 5]: 50 to 100% | pest or weed control at 50 µg/cm2 [3, 6]: 50 to 100%

CC(Cl)(Cl)C(=O)Nc1c(F)ccc(NC(=O)c2cc(NC(=O)[C@H]3[C@H](c4ccc(F)c(C(F)(F)F)c4)C3(Cl)Cl)ccc2Cl)c1F [F1351, 2-Chloro-5-((1R,3R)-2,2-dichloro-3-(4-fluoro-3-(trifluoromethyl)phenyl)cyclopropane-1-carboxamido)-N-(3-(2,2-dichloropropanamido)-2,4-difluorophenyl)benzamide]
YFM [1, 4]: A (80–100) | pest or weed control at 50 µg/cm2 [2, 5]: 50 to 100% | pest or weed control at 50 µg/cm2 [3, 6]: 50 to 100%

CC(F)(F)C(=O)Nc1c(F)ccc(NC(=O)c2cc(NC(=O)[C@H]3[C@H](c4ccc(F)c(C(F)(F)F)c4)C3(Cl)Cl)ccc2Cl)c1F [F1352, 2-Chloro-5-((1R,3R)-2,2-dichloro-3-(4-fluoro-3-(trifluoromethyl)phenyl)cyclopropane-1-carboxamido)-N-(3-(2,2-difluoropropanamido)-2,4-difluorophenyl)benzamide]
YFM [1, 4]: A (80–100) | pest or weed control at 50 µg/cm2 [2, 5]: 50 to 100% | pest or weed control at 50 µg/cm2 [3, 6]: 50 to 100%

CC(C)(Br)C(=O)Nc1c(F)ccc(NC(=O)c2cc(NC(=O)[C@H]3[C@H](c4ccc(F)c(C(F)(F)F)c4)C3(Cl)Cl)ccc2Cl)c1F [F1354, N-(3-(2-Bromo-2-methylpropanamido)-2,4-difluorophenyl)-2-chloro-5-((1R,3R)-2,2-dichloro-3-(4-fluoro-3-(trifluoromethyl)phenyl)cyclopropane-1-carboxamido)benzamide]
YFM [1, 4]: A (80–100) | pest or weed control at 50 µg/cm2 [2, 5]: 50 to 100% | pest or weed control at 50 µg/cm2 [3, 6]: 50 to 100%

O=C(Nc1ccc(F)c(NC(=O)C(Br)Br)c1F)c1cc(NC(=O)[C@H]2[C@H](c3ccc(F)c(C(F)(F)F)c3)C2(Cl)Cl)ccc1Cl [F1355, 2-Chloro-N-(3-(2,2-dibromoacetamido)-2,4-difluorophenyl)-5-((1R,3R)-2,2-dichloro-3-(4-fluoro-3-(trifluoromethyl)phenyl)cyclopropane-1-carboxamido)benzamide]
YFM [1, 4]: A (80–100) | pest or weed control at 50 µg/cm2 [2, 5]: 50 to 100% | pest or weed control at 50 µg/cm2 [3, 6]: 50 to 100%

CCC(F)(F)C(=O)Nc1c(F)ccc(NC(=O)c2cc(NC(=O)[C@H]3[C@H](c4ccc(F)c(C(F)(F)F)c4)C3(Cl)Cl)ccc2Cl)c1F [F1357, 2-Chloro-5-((1R,3R)-2,2-dichloro-3-(4-fluoro-3-(trifluoromethyl)phenyl)cyclopropane-1-carboxamido)-N-(3-(2,2-difluorobutanamido)-2,4-difluorophenyl)benzamide]
YFM [1, 4]: A (80–100) | pest or weed control at 50 µg/cm2 [2, 5]: 50 to 100% | pest or weed control at 50 µg/cm2 [3, 6]: 50 to 100%

CC1(C(=O)Nc2c(F)ccc(NC(=O)c3cc(NC(=O)[C@H]4[C@H](c5ccc(F)c(C(F)(F)F)c5)C4(Cl)Cl)ccc3Cl)c2F)CC1 [F1362, 2-Chloro-5-((1R,3R)-2,2-dichloro-3-(4-fluoro-3-(trifluoromethyl)phenyl)cyclopropane-1-carboxamido)-N-(2,4-difluoro-3-(1-methylcyclopropane-1-carboxamido)phenyl)benzamide]
YFM [1, 4]: A (80–100) | pest or weed control at 50 µg/cm2 [2, 5]: 50 to 100% | pest or weed control at 50 µg/cm2 [3, 6]: 50 to 100%

CCOCC(=O)Nc1c(F)ccc(NC(=O)c2cc(NC(=O)[C@H]3[C@H](c4ccc(F)c(C(F)(F)F)c4)C3(Cl)Cl)ccc2Cl)c1F [F1363, 2-Chloro-5-((1R,3R)-2,2-dichloro-3-(4-fluoro-3-(trifluoromethyl)phenyl)cyclopropane-1-carboxamido)-N-(3-(2-ethoxyacetamido)-2,4-difluorophenyl)benzamide]
YFM [1, 4]: A (80–100) | pest or weed control at 50 µg/cm2 [2, 5]: 50 to 100% | pest or weed control at 50 µg/cm2 [3, 6]: 50 to 100%

N#CCC(=O)Nc1c(F)ccc(NC(=O)c2cc(NC(=O)[C@H]3[C@H](c4ccc(F)c(C(F)(F)F)c4)C3(Cl)Cl)ccc2Cl)c1F [F1369, 2-Chloro-N-(3-(2-cyanoacetamido)-2,4-difluorophenyl)-5-((1R,3R)-2,2-dichloro-3-(4-fluoro-3-(trifluoromethyl)phenyl)cyclopropane-1-carboxamido)benzamide]
YFM [1, 4]: A (80–100) | pest or weed control at 50 µg/cm2 [2, 5]: 50 to 100% | pest or weed control at 50 µg/cm2 [3, 6]: 50 to 100%

CCCCC(=O)Nc1c(F)ccc(NC(=O)c2cc(NC(=O)[C@H]3[C@H](c4ccc(F)c(C(F)(F)F)c4)C3(Cl)Cl)ccc2Cl)c1F [F1372, 2-Chloro-5-((1R,3R)-2,2-dichloro-3-(4-fluoro-3-(trifluoromethyl)phenyl)cyclopropane-1-carboxamido)-N-(2,4-difluoro-3-pentanamidophenyl)benzamide]
YFM [1, 4]: A (80–100) | pest or weed control at 50 µg/cm2 [2, 5]: 50 to 100% | pest or weed control at 50 µg/cm2 [3, 6]: 50 to 100%

CCCC(=O)Nc1c(F)ccc(NC(=O)c2cc(NC(=O)[C@H]3[C@H](c4ccc(F)c(C(F)(F)F)c4)C3(Cl)Cl)ccc2Cl)c1F [F1385, N-(3-Butyramido-2,4-difluorophenyl)-2-chloro-5-((1R,3R)-2,2-dichloro-3-(4-fluoro-3-(trifluoromethyl)phenyl)cyclopropane-1-carboxamido)benzamide]
YFM [1, 4]: A (80–100) | pest or weed control at 50 µg/cm2 [2, 5]: 50 to 100% | pest or weed control at 50 µg/cm2 [3, 6]: 50 to 100%

Cc1c(N)ccc(NC(=O)c2cc(NC(=O)[C@H]3[C@H](c4ccc(F)c(C(F)(F)F)c4)C3(Cl)Cl)ccc2Cl)c1C [F1389, N-(4-Amino-2,3-dimethylphenyl)-2-chloro-5-((1R,3R)-2,2-dichloro-3-(4-fluoro-3-(trifluoromethyl)phenyl)cyclopropane-1-carboxamido)benzamide]
YFM [1, 4]: A (80–100) | pest or weed control at 50 µg/cm2 [2, 5]: 50 to 100% | pest or weed control at 50 µg/cm2 [3, 6]: 50 to 100%

Nc1ccc(F)c(NC(=O)c2cc(NC(=O)[C@H]3[C@H](c4ccc(F)c(C(F)(F)F)c4)C3(Cl)Cl)ccc2Cl)c1F [F1391, N-(3-Amino-2,6-difluorophenyl)-2-chloro-5-((1R,3R)-2,2-dichloro-3-(4-fluoro-3-(trifluoromethyl)phenyl)cyclopropane-1-carboxamido)benzamide]
YFM [1, 4]: A (80–100) | pest or weed control at 50 µg/cm2 [2, 5]: 50 to 100% | pest or weed control at 50 µg/cm2 [3, 6]: 50 to 100%

Cc1c(NC(=O)c2cc(NC(=O)[C@H]3[C@H](c4ccc(F)c(C(F)(F)F)c4)C3(Cl)Cl)ccc2Cl)ccc(NC(=O)C(F)(F)F)c1C [F1392, 2-Chloro-5-((1R,3R)-2,2-dichloro-3-(4-fluoro-3-(trifluoromethyl)phenyl)cyclopropane-1-carboxamido)-N-(2,3-dimethyl-4-(2,2,2-trifluoroacetamido)phenyl)benzamide]
YFM [1, 7]: A (80–100) | pest or weed control at 50 µg/cm2 ([2]; Cabbage Looper, rating class): 50 to 100% | pest or weed control at 50 µg/cm2 ([3]; Beet Armyworm, rating class): 50 to 100%

O=C(Nc1c(F)ccc(NC(=O)C(F)F)c1F)c1cc(NC(=O)[C@H]2[C@H](c3ccc(F)c(C(F)(F)F)c3)C2(Cl)Cl)ccc1Cl [F1394, 2-Chloro-5-((1R,3R)-2,2-dichloro-3-(4-fluoro-3-(trifluoromethyl)phenyl)cyclopropane-1-carboxamido)-N-(3-(2,2-difluoroacetamido)-2,6-difluorophenyl)benzamide]
YFM [1, 7]: A (80–100) | pest or weed control at 50 µg/cm2 ([2]; Cabbage Looper, rating class): 50 to 100% | pest or weed control at 50 µg/cm2 ([3]; Beet Armyworm, rating class): 50 to 100%

O=C(Nc1ccc(F)c(NC(=O)C(F)F)c1F)c1cc(NC(=O)[C@H]2[C@H](c3ccc(F)c(Br)c3)C2(Cl)Cl)ccc1Cl [F1410, 5-((1R,3R)-3-(3-Bromo-4-fluorophenyl)-2,2-dichlorocyclopropane-1-carboxamido)-2-chloro-N-(3-(2,2-difluoroacetamido)-2,4-difluorophenyl)benzamide]
YFM [1, 7]: A (80–100) | pest or weed control at 50 µg/cm2 ([2]; Cabbage Looper, rating class): 50 to 100% | pest or weed control at 50 µg/cm2 ([3]; Beet Armyworm, rating class): 50 to 100%

O=C(Nc1ccc(F)c(NC(=O)C(F)(F)C(F)F)c1F)c1cc(NC(=O)[C@H]2[C@H](c3ccc(Cl)c(Cl)c3)C2(Cl)Cl)ccc1Cl [F1414, 2-Chloro-5-((1R,3R)-2,2-dichloro-3-(3,4-dichlorophenyl)cyclopropane-1-carboxamido)-N-(2,4-difluoro-3-(2,2,3,3-tetrafluoropropanamido)phenyl)benzamide]
YFM [1, 7]: A (80–100) | pest or weed control at 50 µg/cm2 ([2]; Cabbage Looper, rating class): 50 to 100% | pest or weed control at 50 µg/cm2 ([3]; Beet Armyworm, rating class): 50 to 100%

N#CCC(=O)Nc1c(Cl)ccc(NC(=O)c2cc(NC(=O)[C@H]3[C@H](c4ccc(Cl)c(Cl)c4)C3(Cl)Cl)ccc2Cl)c1Cl [F1415, 2-Chloro-N-(2,4-dichloro-3-(2-cyanoacetamido)phenyl)-5-((1R,3R)-2,2-dichloro-3-(3,4-dichlorophenyl)cyclopropane-1-carboxamido)benzamide]
YFM [1, 7]: A (80–100) | pest or weed control at 50 µg/cm2 ([2]; Cabbage Looper, rating class): 50 to 100% | pest or weed control at 50 µg/cm2 ([3]; Beet Armyworm, rating class): 50 to 100%

O=C(Nc1c(F)ccc(NC(=O)c2cc(NC(=O)[C@H]3[C@H](c4ccc(Cl)c(Cl)c4)C3(Cl)Cl)ccc2Cl)c1F)c1ccco1 [F1416, N-(3-(2-Chloro-5-((1R,3R)-2,2-dichloro-3-(3,4-dichlorophenyl)cyclopropane-1-carboxamido)benzamido)-2,6-difluorophenyl)furan-2-carboxamide]
YFM [1, 7]: A (80–100) | pest or weed control at 50 µg/cm2 ([2]; Cabbage Looper, rating class): 50 to 100% | pest or weed control at 50 µg/cm2 ([3]; Beet Armyworm, rating class): 50 to 100%
